In patent US20110053925A1, “Hydroxamate-Based Inhibitors of Deacetylases” (Novartis AG, priority 2009, published 2011):

What was measured:
[1] = target: T1, HDAC-1 (Homo sapiens, UniProt Q13547); assay: HDAC Inhibition Assay (purified GST-HDAC protein); type: biochemical
T1 construct: made in house; host or cells: Sf9 or Sf21 insect cells (baculovirus, donor vector pFB-GSTX3)
Description: The baculovirus donor vector pFB-GSTX3 is used to generate a recombinant baculovirus that can express the HDAC polypeptide. Transfer vectors containing the HDAC coding region are transfected into the DH10Bac cell line (GIBCO) and plated on selective agar plates. Colonies without insertion of the fusion sequence into the viral genome (carried by the bacteria) are blue. Single, white colonies are picked and viral DNAs (bacmid) are isolated from the bacteria by standard plasmid purification procedures. Sf9 cells or Sf21 (American Type Culture Collection) cells are then transfected in […] flasks with the viral DNA using Cellfectin reagent.
Virus-containing media is collected from the transfected cell culture and used for infection to increase its titer. Virus-containing media obtained after two rounds of infection is used for large-scale protein expression. For large-scale protein expression 100 cm^2 round tissue culture plates are seeded with 5×10^7 cells/plate and infected with 1 mL of virus-containing media (at an approximately MOI of 5). After 3 days, the cells are scraped off the plate and centrifuged at 500 rpm for 5 minutes. Cell pellets from 10-20, 100 cm^2 plates, are re-suspended in 50 mL of ice-cold lysis buffer (25 mM tris-HCl, pH 7.5, 2 mM EDTA, 1% NP-40, 1 mM DTT, 1 mM P MSF). The cells are stirred on ice for 15 minutes and then centrifuged at 5,000 rpms for 20 minutes.
The centrifuged cell lysate is loaded onto a 2 mL glutathione-sepharose column (Pharmacia) and is washed thrice with 10 mL of 25 mM tris-HCl, pH 7.5, 2 mM EDTA, 1 mM DTT, 200 mM NaCl. The GST-tagged proteins are then eluted by 10 applications (1 mL each) of 25 mM tris-HCl, pH 7.5, 10 mM reduced-glutathione, 100 mM NaCl, 1 mM DTT, 10% glycerol and stored at −70° C.
HDAC assays with purified GST-HDAC protein are carried out in a final volume of 30 μL containing 15 ng of GST-HDAC protein, 20 mM tris-HCl, pH 7.5, 1 mM MnCl2, 10 mM MgCl2, 1 mM DTT, 3 μg/mL poly(Glu,Tyr) 4:1, 1% DMSO, 2.0 μM ATP (γ-[^33P]-ATP 0.1 μCi). The activity is assayed in the presence or absence of inhibitors. […] Subsequently, […] of the reaction mixture are transferred onto EMMOBILON-PVDF membrane (Millipore) previously soaked for 5 minutes with methanol, rinsed with water, then soaked for 5 minutes with 0.5% H3PO4 and mounted on vacuum manifold with disconnected vacuum source. After spotting all samples, a vacuum is connected and each well rinsed with 200 μL 0.5% H3PO4. Membranes are removed and washed four times on a shaker with 1.0% H3PO4, once with ethanol. Membranes are counted after drying at ambient temperature, mounting in Packard TopCount 96-well frame, and addition of 10 μL/well of MICROSCINT™ (Packard).
• Input: 3×4 μL stopped assay on IMMOBILON membrane, not washed • Background (3 wells): assay with H2O instead of enzyme • Positive control (4 wells): 3% DMSO instead of compound • Bath control (1 well): no reaction mix
In each experiment, the actual inhibition by reference compound is used for normalization of IC50 values to the basis of an average value of the reference inhibitor:
Normalized IC50=measured IC50 average ref. IC50/measured ref. IC50

[2] = tested on: HCT116; assay: HCT116 IC50; type: cell-based; conditions: Homo sapiens, HCT-116

T1 sequence (Q13547 whole entry, species assumed): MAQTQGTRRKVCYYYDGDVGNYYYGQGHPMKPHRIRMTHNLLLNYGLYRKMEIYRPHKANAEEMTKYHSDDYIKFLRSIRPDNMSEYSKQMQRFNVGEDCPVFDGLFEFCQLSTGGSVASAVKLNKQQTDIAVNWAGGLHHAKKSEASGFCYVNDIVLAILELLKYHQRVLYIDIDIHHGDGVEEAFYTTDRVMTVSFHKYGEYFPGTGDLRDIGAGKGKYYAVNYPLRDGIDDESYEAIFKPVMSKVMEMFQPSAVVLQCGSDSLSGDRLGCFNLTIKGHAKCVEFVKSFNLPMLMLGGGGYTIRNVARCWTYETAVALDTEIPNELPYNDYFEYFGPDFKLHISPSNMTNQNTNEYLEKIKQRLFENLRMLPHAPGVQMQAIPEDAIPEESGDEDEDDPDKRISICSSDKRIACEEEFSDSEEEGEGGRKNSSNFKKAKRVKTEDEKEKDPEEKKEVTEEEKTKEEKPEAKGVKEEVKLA

Compound | IC50 [1] [nM] | IC50 [2] [nM]
O=C(/C=C/c1ccc(CN2CCCC(c3c[nH]c4ccccc34)C2)cc1)NO (stereo not drawn) [Compound 2, (E)-N-Hydroxy-3-{4-[3-(1H-indol-3-yl)-piperidin-1-ylmethyl]-phenyl}-acrylamide] | 9 | 32
Cc1[nH]c2ccccc2c1[C@H]1CCCN(Cc2ccc(/C=C/C(=O)NO)cc2)C1 [Compound 3, (E)-N-Hydroxy-3-{4-[(R)-3-(2-methyl-1H-indol-3-yl)-piperidin-1-ylmethyl]-phenyl}-acrylamide] | 6 | 12
Cc1[nH]c2ccc(N3CCOCC3)cc2c1C1CCCN(Cc2ccc(/C=C/C(=O)NO)cc2F)C1 (stereo not drawn) [Compound 4, (E)-3-{3-Fluoro-4-[3-(2-methyl-5-morpholin-4-yl-1H-indol-3-yl)-piperidin-1-ylmethyl]-phenyl}-N-hydroxy-acrylamide] | 11 | 13
O=C(/C=C/c1ccc(CN2CCCC(c3c(-c4ccccc4)[nH]c4ccccc34)C2)cc1)NO (stereo not drawn) [Compound 5, (E)-N-Hydroxy-3-{4-[3-(2-phenyl-1H-indol-3-yl)-piperidin-1-ylmethyl]-phenyl}-acrylamide] | 6 | 2.1
CC(C)(C)c1[nH]c2ccccc2c1C1CCCN(Cc2ccc(/C=C/C(=O)NO)cc2)C1 (stereo not drawn) [Compound 6, (E)-3-{4-[3-(2-tert-Butyl-1H-indol-3-yl)-piperidin-1-ylmethyl]-phenyl}-N-hydroxy-acrylamide] | 3 | 0.3
CC(C)(C)c1[nH]c2ccccc2c1C1=CCCN(Cc2ccc(/C=C/C(=O)NO)cc2)C1 [Compound 7, (E)-3-{4-[5-(2-tert-Butyl-1H-indol-3-yl)-3,6-dihydro-2H-pyridin-1-ylmethyl]-phenyl}-N-hydroxy-acrylamide] | 9 | 12
Cc1[nH]c2ccccc2c1C1C/C(=N/O)CN(Cc2ccc(/C=C/C(=O)NO)cc2)C1 (stereo not drawn) [Compound 8, (E)-N-Hydroxy-3-{4-[3-[(Z)-hydroxyimino]-5-(2-methyl-1H-indol-3-yl)-piperidin-1-ylmethyl]-phenyl}-acrylamide] | 17 | 300
O=C(/C=C/c1ccc(CN2CCCC(C3C(=O)Nc4ccccc43)C2)cc1)NO (stereo not drawn) [Compound 9, (E)-N-Hydroxy-3-{4-[3-(2-oxo-2,3-dihydro-1H-indol-3-yl)-piperidin-1-ylmethyl]-phenyl}-acrylamide] | 8 | 48
CC(C)(C)c1[nH]c2ccccc2c1[C@@H]1CCCN(Cc2ccc(/C=C/C(=O)NO)cc2F)C1 [Compound 11, (E)-3-{4-[(S)-3-(2-tert-Butyl-1H-indol-3-yl)-piperidin-1-ylmethyl]-3-fluoro-phenyl}-N-hydroxy-acrylamide] |  | 0.8
CC(C)(C)c1[nH]c2ccccc2c1C1CCCN(Cc2ccc(/C=C/C(=O)NO)cc2Cl)C1 (stereo not drawn) [Compound 12, (E)-3-{4-[3-(2-tert-Butyl-1H-indol-3-yl)-piperidin-1-ylmethyl]-3-chloro-phenyl}-N-hydroxy-acrylamide] | 19 | 5
CC(C)(O)c1[nH]c2ccccc2c1C1CCCN(Cc2ccc(/C=C/C(=O)NO)cc2F)C1 (stereo not drawn) [Compound 13, (E)-3-(3-Fluoro-4-{3-[2-(1-hydroxy-1-methyl-ethyl)-1H-indol-3-yl]-piperidin-1-ylmethyl}-phenyl)-N-hydroxy-acrylamide] | 6 | 2.8
C=C(C)c1[nH]c2ccccc2c1C1CCCN(Cc2ccc(/C=C/C(=O)NO)cc2F)C1 (stereo not drawn) [Compound 14, (E)-3-{3-Fluoro-4-[3-(2-isopropenyl-1H-indol-3-yl)-piperidin-1-ylmethyl]-phenyl}-N-hydroxy-acrylamide] | 7 | 6
O=C(/C=C/c1ccc(CN2CCCC(c3c(-c4ccccc4)[nH]c4ccccc34)C2)c(F)c1)NO (stereo not drawn) [Compound 15, (E)-3-{3-Fluoro-4-[3-(2-phenyl-1H-indol-3-yl)-piperidin-1-ylmethyl]-phenyl}-N-hydroxy-acrylamide] | 11 | 5.2
CCOC(=O)c1[nH]c2ccccc2c1C1CCCN(Cc2ccc(/C=C/C(=O)NO)cc2F)C1 (stereo not drawn) [Compound 17, 3-{1-[2-Fluoro-4-((E)-2-hydroxycarbamoyl-vinyl)-benzyl]-piperidin-3-yl}-1H-indole-2-carboxylic acid ethyl ester] | 44 | 14
O=C(/C=C/c1ccc(CN2CCCC(c3c(C(=O)NO)[nH]c4ccccc34)C2)c(F)c1)NO (stereo not drawn) [Compound 18, 3-{1-[2-Fluoro-4-((E)-2-hydroxycarbamoyl-vinyl)-benzyl]-piperidin-3-yl}-1H-indole-2-carboxylic acid hydroxyamide] | 31 | 37
O=C(/C=C/c1ccc(CN2CCCC(c3c(C(=O)N4CCOCC4)[nH]c4ccccc34)C2)c(F)c1)NO (stereo not drawn) [Compound 19, (E)-3-(3-Fluoro-4-{3-[2-(morpholine-4-carbonyl)-1H-indol-3-yl]-piperidin-1-ylmethyl}-phenyl)-N-hydroxy-acrylamide] | 22 | 500
Cc1[nH]c2ccc(N3CCOCC3)cc2c1C1CCCN(Cc2ccc(/C=C/C(=O)NO)cc2)C1 (stereo not drawn) [Compound 20, (E)-N-Hydroxy-3-{4-[3-(2-methyl-5-morpholin-4-yl-1H-indol-3-yl)-piperidin-1-ylmethyl]-phenyl}-acrylamide] | 7 | 13
CC(C)c1[nH]c2ccccc2c1C1CCCN(Cc2ccc(CCC(=O)NO)cc2F)C1 (stereo not drawn) [Compound 21, 3-{3-Fluoro-4-[3-(2-isopropyl-1H-indol-3-yl)-piperidin-1-ylmethyl]-phenyl}-N-hydroxy-propionamide] | 6 | 21
O=C(/C=C/c1ccc(CN2CCOC(c3cc(-c4ccccc4)no3)C2)cc1)NO (stereo not drawn) [Compound 24, (E)-N-Hydroxy-3-{4-[2-(3-phenyl-isoxazol-5-yl)-morpholin-4-ylmethyl]-phenyl}-acrylamide] | 32 | 470
O=C(/C=C/c1ccc(CN2CCN(S(=O)(=O)c3ccc(F)cc3)CC2)cc1)NO [Compound 57, (E)-3-{4-[4-(4-Fluoro-benzenesulfonyl)-piperazin-1-ylmethyl]-phenyl}-N-hydroxy-acrylamide] | 260 | 
O=C(/C=C/c1ccc(CN2CCN(S(=O)(=O)c3ccccc3)c3ccccc32)cc1)NO [Compound 58, (E)-3-[4-(4-Benzenesulfonyl-3,4-dihydro-2H-quinoxalin-1-ylmethyl)-phenyl]-N-hydroxy-acrylamide] | 290 | 
O=C(/C=C/c1ccc(CN2CCN(C(=O)Nc3ccccc3)c3ccccc32)cc1)NO [Compound 59, 4-[4-((E)-2-Hydroxycarbamoyl-vinyl)-benzyl]-3,4-dihydro-2H-quinoxaline-1-carboxylic acid phenylamide] | 320 | 
O=C(/C=C/c1ccc(CN2CCN(C(=O)C3CCCCC3)c3ccccc32)cc1)NO [Compound 60, (E)-3-[4-(4-Cyclohexanecarbonyl-3,4-dihydro-2H-quinoxalin-1-ylmethyl)-phenyl]-N-hydroxy-acrylamide] | 220 | 
O=C(/C=C/c1ccc(CN2CCN(C(=O)NCc3ccccc3)c3ccccc32)cc1)NO [Compound 61, 4-[4-((E)-2-Hydroxycarbamoyl-vinyl)-benzyl]-3,4-dihydro-2H-quinoxaline-l-carboxylic acid benzylamide] | 250 | 
